Reference: patent publication US11179399B2, “6-heterocyclyl-4-morpholin-4-ylpyridine-2-one compounds useful for the treatment of cancer and diabetes” (Sprint Bioscience AB, priority 2016, dated 2021)

Experiments:
[1] = system: autophagy in HOS cells (GFP-LC3); assay: High content screening autophagy assay (GFP-LC3 foci); type: cell-based, Human; settings: Homo sapiens, HOS, 6 h, HOS cells with GFP-LC3, autophagy activated by KU-0063794 500 nM with Bafilomycin A1 5 nM, foci area per cell, read-out: Median IC50 (uM) Cellular assay
Experimental: Human osteosarcoma cells (HOS) stably expressing a Green Fluorescent Protein (GFP) tagged LC3 (GFP-LC3) were used to determine the inhibitory effect on autophagy of proprietary compounds. For that purpose, autophagy was activated by using the mTOR inhibitor KU-0063794 at 500 nM in the presence of Bafilomycin A1 (Sigma-Aldrich) at 5 nM. Shortly, cells were plated overnight in clear bottom 96-well plates in DMEM-High Modified media (Hi-Clone Cat #SH30285.01). At the start of the experiment, the media was removed and replaced with fresh media containing the mTOR inhibitor, Bafilomycin A1 and the vehicle or a test compound as indicated. After 6 hours the media was removed, cells were washed twice with ice-cold phosphate buffered saline (PBS) and fixed with 4% paraformaldehyde for 20 minutes at room temperature. Then the cells were washed twice with ice-cold PBS before adding Hoechst 33342 at 1 μg/ml in PBS for nuclear staining. After incubation overnight at 4° C., cells were washed once with PBS to remove the excess of dye and 100 μl of PBS was added to each well. Images were acquired at 20× magnification, 6 images per well, using the ImageXpress automated microscope (Molecular Devices Inc.) and analyzed with MetaXpress software to identify LC3-GFP foci. Foci area per cell values were used to generate dose response curves and IC50 values were calculated using the non-linear fitting analysis in GraphPad Prism software.

Vps34 enzyme = Vps34 enzyme (Homo sapiens (Human), UniProt Q8NEB9); assay: Vps34 biochemical assay (Adapta kinase assay); settings: 20 μM ATP and 200 μM PI:PS in substrate mix, 1 h at room temperature, read-out: Median IC50 uM Adapta
Sequence of Vps34 enzyme (Q8NEB9 whole entry): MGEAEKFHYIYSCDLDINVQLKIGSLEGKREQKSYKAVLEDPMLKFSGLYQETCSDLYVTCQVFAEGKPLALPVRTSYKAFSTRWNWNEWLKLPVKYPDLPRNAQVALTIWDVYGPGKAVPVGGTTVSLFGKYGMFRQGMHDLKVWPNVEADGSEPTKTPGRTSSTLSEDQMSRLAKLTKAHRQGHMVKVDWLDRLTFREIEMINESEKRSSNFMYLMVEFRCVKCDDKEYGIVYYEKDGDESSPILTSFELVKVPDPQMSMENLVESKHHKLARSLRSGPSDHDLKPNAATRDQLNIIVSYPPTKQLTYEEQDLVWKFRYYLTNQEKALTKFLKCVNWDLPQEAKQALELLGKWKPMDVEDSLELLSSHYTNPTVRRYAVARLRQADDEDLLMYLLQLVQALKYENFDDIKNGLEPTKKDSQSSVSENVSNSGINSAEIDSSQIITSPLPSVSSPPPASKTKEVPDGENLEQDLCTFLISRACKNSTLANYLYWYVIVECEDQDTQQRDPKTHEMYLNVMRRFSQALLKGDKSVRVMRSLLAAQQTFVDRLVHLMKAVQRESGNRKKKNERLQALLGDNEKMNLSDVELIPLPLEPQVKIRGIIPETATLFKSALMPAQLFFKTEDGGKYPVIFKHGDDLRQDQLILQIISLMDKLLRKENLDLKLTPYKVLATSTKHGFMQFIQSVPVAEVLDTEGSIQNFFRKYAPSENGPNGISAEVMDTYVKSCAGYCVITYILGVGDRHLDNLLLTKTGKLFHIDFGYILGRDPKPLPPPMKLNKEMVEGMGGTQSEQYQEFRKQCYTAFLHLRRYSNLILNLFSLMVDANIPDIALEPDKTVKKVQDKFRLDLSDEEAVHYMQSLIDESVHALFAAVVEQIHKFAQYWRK
Experimental: Dilution series of compounds of the invention were prepared in DMSO at 100 times the final assay concentration (n1=n0/3 in 10 points). The compounds were further diluted to 4 times the assay concentration in assay buffer (Life technologies buffer Q, PV5125, diluted 5 times supplemented with 2 mM DTT and 2 mM MnCl2). 2.5 μl of the diluted compounds were added to a 384 well assay plate followed by 2.5 μl of 16.5 nM Vps34 enzyme (Life technologies, PV5126). Enzyme and compounds were pre-incubated at rt for 15 min. Then 5 μl of substrate mix containing 20 μM ATP (Life technologies, PV3227) and 200 μM PI:PS substrate (Life technologies, PV5122) in assay buffer was added to the wells containing compound and enzyme. Mixing was performed by pipetting several times. The reaction was incubated at room temperature for 1 h. Then 5 μl stop-detection mix, prepared as described in the Adapta kinase assay kit instructions (Life technologies, PV5099) containing Adapta Eu-anti-ADP antibody (2.3 nM), Alexa Fluor 647 ADP tracer (9 nM) and EDTA (30 mM) in TR-FRET buffer, was added to quench the reaction. Mixing was performed by pipetting several times. The assay plate was then incubated at room temperature for 30 min and read with Artemis micro plate reader. Percent inhibition of the compounds as compared to DMSO treated control samples was calculated. By the use of Dotmatics software compound concentration versus percent inhibition was fitted to generate IC50 values.

IC50 [1] [µM]	IC50 (Vps34 enzyme) [µM]	SMILES
2	0.02	CC1COCCN1c1cc(N2CCCC2c2ccccc2)[nH]c(=O)c1 (stereo not shown) [Example 9, 4-(3-methylmorpholin-4-yl)-6-(2-phenylpyrrolidin-1-yl)-1H-pyridin-2-one]
0.6	0.008	C[C@@H]1COCCN1c1cc(N2CCCC[C@@H]2c2ccccc2)[nH]c(=O)c1 [Example 30, 4-[(3R)-3-methylmorpholin-4-yl]-6-[(2R)-2-phenyl-1-piperidyl]-1H-pyridin-2-one]
0.3	0.006	C[C@@H]1COCCN1c1cc(N2CCOCC2C(F)(F)F)[nH]c(=O)c1 (stereo partly drawn) [Example 32, 4-[(3R)-3-methylmorpholin-4-yl]-6-[3-(trifluoromethyl)morpholin-4-yl]-1H-pyridin-2-one]
0.7	0.009	C[C@@H]1COCCN1c1cc(N2CCC[C@@H]2C(F)(F)F)[nH]c(=O)c1 [Example 35, 4-[(3R)-3-methylmorpholin-4-yl]-6-[(2R)-2-(trifluoromethyl)pyrrolidin-1-yl]-1H-pyridin-2-one]
0.3	0.02	C[C@@H]1COCCN1c1cc(N2CCCC2c2cccc(C3CC3)c2)[nH]c(=O)c1 (stereo partly drawn) [Example 37, 6-[2-(3-cyclopropylphenyl)pyrrolidin-1-yl]-4-[(3R)-3-methylmorpholin-4-yl]-1H-pyridin-2-one]
0.08	0.01	C[C@@H]1COCCN1c1cc(N2CCCC[C@@H]2C(F)(F)F)n(C)c(=O)c1 [Example 41, 1-methyl-4-[(3R)-3-methylmorpholin-4-yl]-6-[(2R)-2-(trifluoromethyl)-1-piperidyl]pyridin-2-one]
0.1	0.003	CC(=O)N1CCN(c2cc(N3CCOC[C@H]3C)cc(=O)[nH]2)C(C(F)(F)F)C1 (stereo partly drawn) [Example 45, 6-[4-acetyl-2-(trifluoromethyl)piperazin-1-yl]-4-[(3R)-3-methylmorpholin-4-yl]-1H-pyridin-2-one]
0.09	0.006	C[C@@H]1COCCN1c1cc(N2CCN(C(=O)Cc3ccc(F)cc3)CC2C(F)(F)F)[nH]c(=O)c1 (stereo partly drawn) [Example 47, 6-[4-[2-(4-fluorophenyl)acetyl]-2-(trifluoromethyl)piperazin-1-yl]-4-[(3R)-3-methylmorpholin-4-yl]-1H-pyridin-2-one]
